Measurements taken from ChEMBL document CHEMBL5236603, “Discovery of mobocertinib, a potent, oral inhibitor of EGFR exon 20 insertion mutations in non-small cell lung cancer” (Bioorg Med Chem Lett, 2023).

What was measured:
[1] = Inhibition of mouse EGFR delE746_A750 mutant stably expressed in mouse BaF3 cells assessed as cell viability incubated for 3 days by Cell Titer-Glo assay; format: cell-based; settings: BaF3, 72 h
[2] = Inhibition of mouse EGFR Del-T790M double mutant stably expressed in mouse BaF3 cells assessed as cell viability incubated for 3 days by Cell Titer-Glo assay; format: cell-based; settings: BaF3, 72 h
[3] = Inhibition of mouse EGFR D770_N771insNPG mutant stably expressed in mouse BaF3 cells assessed as cell viability incubated for 3 days by Cell Titer-Glo assay; format: cell-based; settings: BaF3, 72 h
[4] = Inhibition of mouse EGFR V769_D770insASV mutant stably expressed in mouse BaF3 cells assessed as cell viability incubated for 3 days by Cell Titer-Glo assay; format: cell-based; settings: BaF3, 72 h
[5] = biological target: Epidermal growth factor receptor (Homo sapiens, UniProt P00533); experiment: Inhibition of […]-induced EGFR phosphorylation in human A549 cells pretreated for 2 hrs followed by EGF stimulation by immune assay; format: cell-based
Epidermal growth factor receptor, sequence (P00533 whole entry): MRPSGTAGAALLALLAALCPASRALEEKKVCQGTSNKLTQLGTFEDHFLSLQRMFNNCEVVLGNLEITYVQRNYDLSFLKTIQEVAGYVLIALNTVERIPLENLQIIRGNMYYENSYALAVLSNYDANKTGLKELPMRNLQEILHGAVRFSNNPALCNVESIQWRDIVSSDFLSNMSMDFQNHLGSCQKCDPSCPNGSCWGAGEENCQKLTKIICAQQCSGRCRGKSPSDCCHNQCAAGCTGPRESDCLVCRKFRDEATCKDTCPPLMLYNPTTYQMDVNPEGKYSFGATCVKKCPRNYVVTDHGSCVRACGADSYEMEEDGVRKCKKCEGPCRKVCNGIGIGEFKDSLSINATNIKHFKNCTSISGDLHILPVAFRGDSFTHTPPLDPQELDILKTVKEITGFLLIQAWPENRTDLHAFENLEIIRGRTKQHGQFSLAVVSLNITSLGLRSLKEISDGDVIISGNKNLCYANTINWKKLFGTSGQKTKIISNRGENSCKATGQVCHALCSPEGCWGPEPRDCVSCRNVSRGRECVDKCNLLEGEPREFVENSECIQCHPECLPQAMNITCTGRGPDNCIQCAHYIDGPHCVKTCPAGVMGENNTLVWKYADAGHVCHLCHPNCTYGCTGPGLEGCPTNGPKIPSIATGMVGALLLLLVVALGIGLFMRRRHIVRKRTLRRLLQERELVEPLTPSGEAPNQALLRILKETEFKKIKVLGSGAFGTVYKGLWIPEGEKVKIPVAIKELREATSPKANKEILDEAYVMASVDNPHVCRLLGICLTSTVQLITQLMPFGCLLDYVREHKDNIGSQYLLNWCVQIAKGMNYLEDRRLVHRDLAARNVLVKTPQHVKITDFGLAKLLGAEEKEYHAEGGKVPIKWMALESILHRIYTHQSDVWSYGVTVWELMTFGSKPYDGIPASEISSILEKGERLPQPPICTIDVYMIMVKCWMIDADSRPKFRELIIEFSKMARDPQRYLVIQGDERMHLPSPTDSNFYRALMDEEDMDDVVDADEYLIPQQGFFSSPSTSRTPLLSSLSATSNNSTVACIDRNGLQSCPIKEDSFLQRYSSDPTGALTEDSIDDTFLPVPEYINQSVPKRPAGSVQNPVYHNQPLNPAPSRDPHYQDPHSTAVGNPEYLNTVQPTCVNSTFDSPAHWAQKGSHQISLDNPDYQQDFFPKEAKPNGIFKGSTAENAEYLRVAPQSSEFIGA

[6] = Cmax in CD-1 mouse at 10 mg/kg, po by LC/MS/MS analysis; format: ADME, organism-based; set-up: dose 10 mg/kg, route po; settings: in vivo
[7] = AUClast in CD-1 mouse at 10 mg/kg, po by LC/MS/MS analysis; format: ADME, organism-based; set-up: dose 10 mg/kg, route po; settings: in vivo
[8] = Cmax in CD-1 rat at 10 mg/kg, po by LC/MS/MS analysis; format: ADME, organism-based; set-up: dose 10 mg/kg, route po; settings: in vivo
[9] = AUClast in CD-1 rat at 10 mg/kg, po by LC/MS/MS analysis; format: ADME, organism-based; set-up: dose 10 mg/kg, route po; settings: in vivo
BaF3 [10] = experiment: In vivo antitumor activity against mouse BaF3 cells expressing EGFR exon 20 insertion (ex20ins) ASV implanted in SCID mouse assessed as tumor growth inhibition at 50 mg/kg, po administered for 7 consecutive days; format: functional; settings: 168 h, time 7 day, read-out: TGI
BaF3 [11] = experiment: In vivo antitumor activity against mouse BaF3 cells expressing EGFR exon 20 insertion (ex20ins) ASV implanted in SCID mouse assessed as tumor regression at 100 mg/kg, po administered for 7 consecutive days; format: functional; settings: time 7 day

## CN(C)C/C=C/C(=O)Nc1cc2c(Nc3ccc(F)c(Cl)c3)ncnc2cc1O[C@H]1CCOC1 [AFATINIB]
[1]
  IC50: 0.6 nM
[2]
  IC50: 97 nM
[3]
  IC50: 36 nM
[4]
  IC50: 44 nM

## C=CC(=O)Nc1cc(Nc2ncc(C(=O)OC(C)C)c(-c3cn(C(C)=O)c4ccccc34)n2)c(OC)cc1N(C)CCN(C)C
[3]
  IC50: 3 nM
[4]
  IC50: 4 nM
[5]
  IC50: 79 nM
[6]
  Cmax: 42 ng/mL
[7]
  AUC(0-t): 87 ng·h/mL
[8]
  Cmax: 16 ng/mL
[9]
  AUC(0-t): 38 ng·h/mL

## C=CC(=O)Nc1cc(Nc2ncc(Cl)c(-c3c4n(c5ccccc35)CCOC4)n2)c(OC)cc1N(C)CCN(C)C
[3]
  IC50: 754 nM
[4]
  IC50: 1020 nM
[5]
  IC50: 2970 nM

## C=CC(=O)Nc1cc(Nc2ncc(-c3nc(C)no3)c(-c3cn4c5c(cccc35)CCC4)n2)c(OC)cc1N(C)CCN(C)C
[3]
  IC50: 11 nM
[4]
  IC50: 38 nM
[5]
  IC50: 49 nM
[6]
  Cmax: 31 ng/mL
[7]
  AUC(0-t): 96 ng·h/mL

## C=CC(=O)Nc1cc(Nc2ncc(C(=O)OC(C)C)c(-c3cn(CC)c4ccccc34)n2)c(OC)cc1N(C)CCN(C)C
[3]
  IC50: 5 nM
[4]
  IC50: 7 nM
[5]
  IC50: 24 nM
[6]
  Cmax: 72 ng/mL
[7]
  AUC(0-t): 631 ng·h/mL
[8]
  Cmax: 149 ng/mL
[9]
  AUC(0-t): 1920 ng·h/mL

## C=CC(=O)Nc1cc(Nc2ncc(C(=O)OC(C)C)c(-c3cn(C)c4ccccc34)n2)c(OC)cc1N(C)C[C@H]1CCCN1C
[3]
  IC50: 6 nM
[4]
  IC50: 12 nM
[5]
  IC50: 43 nM
[6]
  Cmax: 94 ng/mL
[7]
  AUC(0-t): 294 ng·h/mL
[8]
  Cmax: 40 ng/mL
[9]
  AUC(0-t): 323 ng·h/mL
BaF3 [10]
  inhibition in vivo at 50 mg/kg: 72%
BaF3 [11]
  Activity: -10%

## C=CC(=O)Nc1cccc(Nc2nc(Nc3ccc(N4CCN(C(C)=O)CC4)cc3OC)ncc2C(F)(F)F)c1 [ROCILETINIB]
[1]
  IC50: 25 nM
[2]
  IC50: 9 nM
[3]
  IC50: 179 nM
[4]
  IC50: 883 nM

## C=CC(=O)Nc1cc(Nc2ncc(C(=O)OCC)c(-c3cn(C)c4ccccc34)n2)c(OC)cc1N(C)CCN(C)C
[3]
  IC50: 6 nM
[4]
  IC50: 13 nM
[5]
  IC50: 19 nM
[6]
  Cmax: 45 ng/mL
[7]
  AUC(0-t): 129 ng·h/mL
[8]
  Cmax: 113 ng/mL
[9]
  AUC(0-t): 1540 ng·h/mL

## C=CC(=O)Nc1cc(Nc2ncc(Cl)c(-c3cn4c5c(cccc35)CCC4)n2)c(OC)cc1N(C)CCN(C)C
[3]
  IC50: 22 nM
[4]
  IC50: 58 nM
[5]
  IC50: 71 nM

## C=CC(=O)Nc1cc(Nc2ncc(Cl)c(-c3cn4c5c(cccc35)OCC4)n2)c(OC)cc1N(C)CCN(C)C
[3]
  IC50: 15 nM
[4]
  IC50: 35 nM
[5]
  IC50: 36 nM

## C=CC(=O)Nc1cc(Nc2ncc(C(=O)OCC)c(-c3cn4c5c(cccc35)CCC4)n2)c(OC)cc1N(C)CCN(C)C
[3]
  IC50: 6.43 nM
[4]
  IC50: 15 nM
[5]
  IC50: 32 nM
[6]
  Cmax: 29 ng/mL
[7]
  AUC(0-t): 102 ng·h/mL
[8]
  Cmax: 110 ng/mL
[9]
  AUC(0-t): 1480 ng·h/mL

## C=CC(=O)Nc1cc(Nc2ncc(C(=O)OCC(C)C)c(-c3cn(C)c4ccccc34)n2)c(OC)cc1N(C)CCN(C)C
[3]
  IC50: 14 nM
[4]
  IC50: 43 nM
[5]
  IC50: 142 nM

## C=CC(=O)Nc1cc(Nc2nccc(-c3cn(C)c4ccccc34)n2)c(OC)cc1N(C)CCN(C)C [OSIMERTINIB]
[1]
  IC50: 6 nM
[2]
  IC50: 7 nM
[3]
  IC50: 53 nM
[4]
  IC50: 158 nM
[6]
  Cmax: 175 ng/mL
[8]
  Cmax: 98 ng/mL

## C=CC(=O)Nc1cc(Nc2ncc(C(=O)OC(C)C)c(-c3cn(C4CC4)c4ccccc34)n2)c(OC)cc1N(C)CCN(C)C
[3]
  IC50: 23 nM
[4]
  IC50: 30 nM
[5]
  IC50: 224 nM

## C=CC(=O)Nc1cc(Nc2ncc(C(=O)OC(C)C)c(-c3cn4c5c(cccc35)CCC4)n2)c(OC)cc1N(C)CCN(C)C
[3]
  IC50: 6.57 nM
[4]
  IC50: 12.4 nM
[5]
  IC50: 39 nM

## C=CC(=O)Nc1cc(Nc2ncc(C(=O)OC)c(-c3cn4c5c(cccc35)CCC4)n2)c(OC)cc1N(C)CCN(C)C
[3]
  IC50: 6.57 nM
[4]
  IC50: 22.1 nM
[5]
  IC50: 40 nM
[6]
  Cmax: 20 ng/mL
[7]
  AUC(0-t): 56 ng·h/mL
[8]
  Cmax: 170 ng/mL
[9]
  AUC(0-t): 1920 ng·h/mL

## C=CC(=O)Nc1cc(Nc2ncc(C(=O)OC)c(-c3cn(C)c4ccccc34)n2)c(OC)cc1N(C)CCN(C)C
[3]
  IC50: 8 nM
[4]
  IC50: 18 nM
[5]
  IC50: 20 nM
[6]
  Cmax: 31 ng/mL
[7]
  AUC(0-t): 92 ng·h/mL
[8]
  Cmax: 207 ng/mL
[9]
  AUC(0-t): 2300 ng·h/mL

## C=CC(=O)Nc1cc(Nc2ncc(C(=O)CC)c(-c3cn4c5c(cccc35)CCC4)n2)c(OC)cc1N(C)CCN(C)C
[3]
  IC50: 4.95 nM
[4]
  IC50: 17.3 nM
[5]
  IC50: 23 nM

## C=CC(=O)Nc1cc(Nc2ncc(-c3ncco3)c(-c3cn4c5c(cccc35)CCC4)n2)c(OC)cc1N(C)CCN(C)C
[3]
  IC50: 9 nM
[4]
  IC50: 29 nM
[5]
  IC50: 45 nM
[6]
  Cmax: 57 ng/mL
[7]
  AUC(0-t): 234 ng·h/mL
[8]
  Cmax: 86 ng/mL
[9]
  AUC(0-t): 1140 ng·h/mL

## C=CC(=O)Nc1cc(Nc2ncc(-c3nnco3)c(-c3cn4c5c(cccc35)CCC4)n2)c(OC)cc1N(C)CCN(C)C
[3]
  IC50: 6.2 nM
[4]
  IC50: 13 nM
[5]
  IC50: 15 nM
[6]
  Cmax: 9 ng/mL
[7]
  AUC(0-t): 22 ng·h/mL
[8]
  Cmax: 38 ng/mL
[9]
  AUC(0-t): 427 ng·h/mL

## C=CC(=O)Nc1cc(Nc2nccc(-c3c4n(c5ccccc35)CCOC4)n2)c(OC)cc1N(C)CCN(C)C
[3]
  IC50: 53 nM
[4]
  IC50: 112 nM
[5]
  IC50: 288 nM
[6]
  Cmax: 183 ng/mL
[7]
  AUC(0-t): 655 ng·h/mL
[8]
  Cmax: 248 ng/mL
[9]
  AUC(0-t): 2670 ng·h/mL

## C=CC(=O)Nc1cc(Nc2ncc(Cl)c(-c3cnn4ccccc34)n2)c(OC)cc1N(C)CCN(C)C
[3]
  IC50: 32 nM
[4]
  IC50: 59 nM
[5]
  IC50: 95 nM

## C=CC(=O)Nc1cc(Nc2nccc(-c3cn4c5c(cccc35)OCC4)n2)c(OC)cc1N(C)CCN(C)C
[3]
  IC50: 52 nM
[4]
  IC50: 137 nM
[6]
  Cmax: 97 ng/mL
[7]
  AUC(0-t): 438 ng·h/mL
[8]
  Cmax: 207 ng/mL
[9]
  AUC(0-t): 2680 ng·h/mL

## C#Cc1cnc(Nc2cc(NC(=O)C=C)c(N(C)CCN(C)C)cc2OC)nc1-c1cn2c3c(cccc13)CCC2
[3]
  IC50: 9.8 nM
[4]
  IC50: 25 nM
[5]
  IC50: 42 nM

## C=CC(=O)Nc1cc(Nc2ncc(C(=O)NC)c(-c3cn4c5c(cccc35)CCC4)n2)c(OC)cc1N(C)CCN(C)C
[3]
  IC50: 37.6 nM
[4]
  IC50: 136 nM
[5]
  IC50: 147 nM

## C=CC(=O)Nc1cc(Nc2ncc(C(=O)OC3CCC3)c(-c3cn(C)c4ccccc34)n2)c(OC)cc1N(C)CCN(C)C
[3]
  IC50: 9 nM
[4]
  IC50: 28 nM
[5]
  IC50: 84 nM

## C=CC(=O)Nc1cc(Nc2ncc(-c3ccnn3C)c(-c3cn4c5c(cccc35)CCC4)n2)c(OC)cc1N(C)CCN(C)C
[3]
  IC50: 11 nM
[4]
  IC50: 28 nM
[5]
  IC50: 23 nM
[6]
  Cmax: 218 ng/mL
[7]
  AUC(0-t): 884 ng·h/mL
[8]
  Cmax: 320 ng/mL
[9]
  AUC(0-t): 2950 ng·h/mL

## C=CC(=O)Nc1cc(Nc2nccc(-c3cn4c5c(cccc35)CCC4)n2)c(OC)cc1N(C)CCN(C)C
[3]
  IC50: 54 nM
[4]
  IC50: 197 nM
[5]
  IC50: 405 nM
[6]
  Cmax: 81 ng/mL
[7]
  AUC(0-t): 285 ng·h/mL
[8]
  Cmax: 126 ng/mL
[9]
  AUC(0-t): 466 ng·h/mL

## C=CC(=O)Nc1cc(Nc2ncc(-c3cnn(C(C)C)c3)c(-c3cn4c5c(cccc35)CCC4)n2)c(OC)cc1N(C)CCN(C)C
[3]
  IC50: 13 nM
[4]
  IC50: 16 nM
[5]
  IC50: 15 nM
[6]
  Cmax: 46 ng/mL
[7]
  AUC(0-t): 353 ng·h/mL
[8]
  Cmax: 163 ng/mL
[9]
  AUC(0-t): 2020 ng·h/mL
